Measured values from patent US10420770B2, “Compositions and methods for treating dementia” (EIP Pharma, LLC, priority 2016, dated 2019).
“And” between values parts separate entries of the source, which are not always exact repeats. Equal entries are not always repeated.

Assays:
Format in all cases: in vivo, human
[1] = Population pharmacokinetic analyses (Example 1 and Example 2 combined); conditions: population PK
Experimental: (§1) Sixteen subjects completed the full 12 weeks of treatment and all were included in safety analyses. […] In the PK analysis, due to the sparse sampling collection design, the time period from 0 to 24 hours post-dose was divided into 4 blocks in order to show the distribution of concentrations over time. […] Average blood concentration of about 8 ng/mL at the 40 mg dose level was observed. This is higher than the 5 ng/mL.

[2] = Safety and tolerability, 12-week Phase IIa study (Example 1); conditions: 40 mg or 125 mg twice daily, 12 weeks
Experimental: Investigators and patients were blind to the dosage strength. […] Patients were instructed to take doses within 30 minutes following a meal or snack, with each dose taken approximately 12 hours apart at the same times each day throughout the study.
as §1

[3] = Safety and tolerability, 6-week Phase IIa study (Example 2); conditions: 6 weeks
Experimental: Investigators and patients were blinded to the dosage strength. The first 3 patients were randomly assigned to receive either 40 or 125 mg twice daily, with dosing level blinded. The remaining patients (up to 7 patients) received 40 mg twice daily on an open-label basis. […] Patients were instructed to eat a meal approximately 30 minutes before dosing with VX 745 with each dose taken approximately 12 hours (+/−3 hours) apart at the same times each day throughout the study.

[4] = test system: neurofilament light chain (NFL); assay: CSF neurofilament light chain (NFL), 6-week study; conditions: baseline to day 40
Experimental: Phospho-tau and NFL proteins from CSF sampling were evaluated as markers of the effects of inflammation on neurodegeneration and axonopathy, respectively.

amyloid plaque load = assay: Quantitative dynamic [11C]PiB PET amyloid scanning (RPM2-BPND), 12-week study; conditions: for Number of Responders/Total Number in Population, PET metric Cingulate Posterior / Number of Responders/Total Number in Population, PET metric Frontal / Number of Responders/Total Number in Population, PET metric Global / Number of Responders/Total Number in Population, PET metric Med Temp Lobe / Number of Responders/Total Number in Population, PET metric Parietal / Number of Responders/Total Number in Population, PET metric Temporal: responder = reduction of ≥7% in RPM2-BPND
Experimental: Dosing started on Day 1 following completion of all baseline procedures. During the treatment period, subjects returned to the clinic on Days 14, 28, 56, and 84. […] Dynamic PET scanning with fill quantitative analysis was performed at baseline and at the end of treatment.
Target engagement was assessed through the use of an AD-related biomarker. The primary endpoint was based on assessment of amyloid plaque burden using quantitative dynamic PET amyloid scanning (Tolboom, N. et al. “Test-retest variability of quantitative [^11C]PIB studies in Alzheimer's disease.” Eur. J. Nucl. Med. Mol. Imaging 36(10): 1629-1638 (2009)). The method of van Berckel et al (van Berckel B N, R. Ossenkoppele, et al. “Longitudinal amyloid imaging using ^11CPiB: Methodologic considerations.” J. Nucl. Med. 5=1; 1570-1576 (2013)) was followed, in which dynamic emission scanning consists of 23 frames with progressive increases in frame duration (1·15, 3·5, 3·10, 2·30, 3·60, 2·150, 2·300, and 7·600 s) for a total scan duration of 90 min; and subsequently full quantitative data analysis of the images was performed by reference parametric mapping (RPM2) using cerebellum as reference tissue. This methodology allowed for a more reliable (i.e. less variable) assessment of brain amyloid plaque load than standard amyloid PET imaging. In addition this method of measuring amyloid burden has high scan-to-scan stability (˜2-3% test-test variability) within subjects. No placebo group was enrolled. Instead, reductions in brain amyloid plaque load of greater than 7%, which is definitively outside the range of test-test variability, were considered to be a drug effect in this study.

Question: Which “median 12-hour exposure” value ([1]; 40 mg dose level) does the source give for O=c1ncn2nc(Sc3ccc(F)cc3F)ccc2c1-c1c(Cl)cccc1Cl [VX-745] here?
Answer: 78 ng·h/mL

Question: And the “median 12-hour exposure” value ([1]; 125 mg dose level)?
Answer: 116 ng·h/mL

Question: What about the half-life ([1]; human, plasma, oral, Examples 1 and 2 combined, read-out: terminal half-life (converted)) of the same molecule?
Answer: ~16 h

Question: What about the liver transaminase elevations [2] of the same molecule?
Answer: No liver transaminase elevations

Question: What about the serious adverse events [2] of the same molecule?
Answer: No serious adverse events

Question: What about the tolerability [2] of the same molecule?
Answer: well tolerated

Question: And the tolerability ([3]; 40 mg or 125 mg twice daily)?
Answer: well-tolerated

Question: What about the safety concerns [3] of the same molecule?
Answer: No safety concerns were identified

Question: What about the “safety laboratory and 12-lead ECG parameters” value [3] of the same molecule?
Answer: no treatment-related or clinically relevant trends

Question: And the “Most common adverse events” value ([3]; 9 subjects)?
Answer: mild dizziness, headache, and somnolence reported in 2 subjects each

Question: And the “CSF levels of neurofilament light chain (NFL)” value [4]?
Answer: no change

Question: What about the “subjects between 3 and 7% (% change RPM2_BPND)” value (amyloid plaque load; 40 mg) of the same molecule?
Answer: 2

Question: What about the “subjects who reached the 7% responder criterion (% change RPM2_BPND)” value (amyloid plaque load; 40 mg) of the same molecule?
Answer: 3

Question: What about the “Number of Responders/Total Number in Population, PET metric Cingulate Posterior” value (amyloid plaque load; 40 mg twice daily 12 weeks) of the same molecule?
Answer: 2/8

Question: And the “Number of Responders/Total Number in Population, PET metric Frontal” value (amyloid plaque load; 40 mg twice daily 12 weeks)?
Answer: 3/8

Question: What about the “Number of Responders/Total Number in Population, PET metric Global” value (amyloid plaque load; 40 mg twice daily 12 weeks) of the same molecule?
Answer: 3/8

Question: And the “Number of Responders/Total Number in Population, PET metric Med Temp Lobe” value (amyloid plaque load; 40 mg twice daily 12 weeks)?
Answer: 4/8

Question: And the “Number of Responders/Total Number in Population, PET metric Parietal” value (amyloid plaque load; 40 mg twice daily 12 weeks)?
Answer: 3/8

Question: What about the “Number of Responders/Total Number in Population, PET metric Temporal” value (amyloid plaque load; 40 mg twice daily 12 weeks) of the same molecule?
Answer: 2/8

Question: And the “Number of Responders/Total Number in Population, PET metric Cingulate Posterior” value (amyloid plaque load; 125 mg twice daily 12 weeks)?
Answer: 0/7

Question: And the “Number of Responders/Total Number in Population, PET metric Frontal” value (amyloid plaque load; 125 mg twice daily 12 weeks)?
Answer: 1/7

Question: What about the “Number of Responders/Total Number in Population, PET metric Global” value (amyloid plaque load; 125 mg twice daily 12 weeks) of the same molecule?
Answer: 1/7

Question: And the “Number of Responders/Total Number in Population, PET metric Med Temp Lobe” value (amyloid plaque load; 125 mg twice daily 12 weeks)?
Answer: 2/7

Question: And the “Number of Responders/Total Number in Population, PET metric Parietal” value (amyloid plaque load; 125 mg twice daily 12 weeks)?
Answer: 0/7

Question: What about the “Number of Responders/Total Number in Population, PET metric Temporal” value (amyloid plaque load; 125 mg twice daily 12 weeks) of the same molecule?
Answer: 1/7

Question: And the “Percentage reduction in global cortical RPM2-BPND, individual responders” value (amyloid plaque load; 3 responders in the 40 mg dose group, 12 weeks)?
Answer: −11.6% and −11.9% and −40.5%

Question: What about the “Number of Responders/Total Number in Population, PET metric Cingulate Posterior” value (amyloid plaque load; All, 12 weeks) of the same molecule?
Answer: 2/15

Question: And the “Number of Responders/Total Number in Population, PET metric Frontal” value (amyloid plaque load; All, 12 weeks)?
Answer: 4/15

Question: And the “Number of Responders/Total Number in Population, PET metric Global” value (amyloid plaque load; All, 12 weeks)?
Answer: 4/15

Question: And the “Number of Responders/Total Number in Population, PET metric Med Temp Lobe” value (amyloid plaque load; All, 12 weeks)?
Answer: 6/15

Question: And the “Number of Responders/Total Number in Population, PET metric Parietal” value (amyloid plaque load; All, 12 weeks)?
Answer: 3/15

Question: And the “Number of Responders/Total Number in Population, PET metric Temporal” value (amyloid plaque load; All, 12 weeks)?
Answer: 3/15

Question: What about the “Percentage reduction in global cortical RPM2-BPND, individual responder” value (amyloid plaque load; one responder in the 125 mg dose group, 12 weeks) of the same molecule?
Answer: −7.7%
